For this assay, the target named is CDK7/Cyclin H/MAT1 kinase (Homo sapiens (Human), UniProt P50613). Description: Enzyme activity test, mobility shift assay (Table 1). Conditions: 2 mM ATP; pre-incubated 0 and 60 minutes. Type of assay: biochemical. Here is the method: IC50 values of the compounds for CDK7 kinase were detected in Wuxi Biortus Biosciences Co. Ltd.
The compound powder was dissolved in 100% DMSO to prepare a 10 mM storage solution. The storage solution was further diluted to 0.5 mM as the initial concentration, and continuously diluted 3 times to obtain 10 compound solutions with different concentrations. The compound and enzyme were pre-incubated for 0 minutes and 60 minutes, respectively, using duplicate detection.
was used as a positive control, and Mobility shift assay method was used to detect CDK kinase (such as CDK7, CDK9, CDK12 and CDK2) activity of the compounds.

Structures are written as SMILES.

Chain of CDK7/Cyclin H/MAT1 kinase (P50613 whole entry): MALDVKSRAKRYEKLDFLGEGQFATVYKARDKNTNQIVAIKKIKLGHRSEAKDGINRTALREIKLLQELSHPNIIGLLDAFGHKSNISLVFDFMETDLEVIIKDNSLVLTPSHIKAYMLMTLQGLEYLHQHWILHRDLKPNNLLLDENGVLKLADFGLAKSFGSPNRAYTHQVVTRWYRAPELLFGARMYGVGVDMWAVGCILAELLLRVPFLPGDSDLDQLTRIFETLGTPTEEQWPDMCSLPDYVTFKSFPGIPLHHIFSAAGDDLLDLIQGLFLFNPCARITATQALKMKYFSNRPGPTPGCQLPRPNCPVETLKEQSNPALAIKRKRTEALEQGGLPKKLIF
Chain of CDK7/Cyclin H/MAT1 kinase (P51946 whole entry partner): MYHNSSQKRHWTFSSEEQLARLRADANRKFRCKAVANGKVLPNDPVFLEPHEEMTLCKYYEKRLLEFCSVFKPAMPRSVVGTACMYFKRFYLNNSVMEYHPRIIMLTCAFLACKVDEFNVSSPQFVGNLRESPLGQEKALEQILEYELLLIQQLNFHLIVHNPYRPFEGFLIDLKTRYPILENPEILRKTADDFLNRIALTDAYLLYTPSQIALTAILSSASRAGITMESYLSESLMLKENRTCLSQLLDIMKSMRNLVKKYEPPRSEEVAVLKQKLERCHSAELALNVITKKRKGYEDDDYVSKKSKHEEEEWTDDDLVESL
Chain of CDK7/Cyclin H/MAT1 kinase (P51948 whole entry partner): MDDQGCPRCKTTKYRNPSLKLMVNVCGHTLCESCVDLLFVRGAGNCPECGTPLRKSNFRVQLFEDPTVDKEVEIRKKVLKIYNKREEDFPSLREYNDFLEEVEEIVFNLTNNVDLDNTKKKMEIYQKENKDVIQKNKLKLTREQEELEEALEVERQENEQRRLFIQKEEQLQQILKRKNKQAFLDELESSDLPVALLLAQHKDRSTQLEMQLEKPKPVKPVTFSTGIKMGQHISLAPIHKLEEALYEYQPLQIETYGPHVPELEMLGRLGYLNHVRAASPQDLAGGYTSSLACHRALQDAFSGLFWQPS

In general, IC50 refers to the concentration needed to halve the response being measured. Consider `O=C1OCCN1c1ccc2c(-c3nc(N[C@H]4CCCNC4)ncc3C(F)(F)F)c[nH]c2c1` [Example T-49], for which the IC50 was less than 50 nM.
As for `CCCOC(=O)Nc1ccc2c(-c3nc(N[C@H]4CCCNC4)ncc3C(F)(F)F)c[nH]c2c1Br` [Example T-45], the IC50 fell in the range of 50 to 500 nM.
To `COC(=O)Nc1ccc2c(-c3nc(N[C@@H]4CNCC(C)(C)C4)ncc3C(F)(F)F)c[nH]c2c1C(F)(F)F` [Example T-101] belongs less than 50 nM; to `COC(=O)Nc1ccc2c(-c3nc(N[C@H]4CC[C@H](N)C4)ncc3C(F)(F)F)c[nH]c2c1Br` [Example T-54], 50 to 500 nM.
For `COC(=O)Nc1ccc2c(-c3nc(N[C@H]4CCCNC4)ncc3Cl)c[nH]c2c1Br` [Example T-71], the IC50 is less than 50 nM.
Consider `COC(=O)Nc1ccc2c(-c3nc(N[C@H]4CCCNC4)ncc3C(F)(F)F)cn(C)c2c1Br` [Example T-40], for which the IC50 fell in the range of 50 to 500 nM.
Next, `CCc1cnc(N[C@H]2CCCNC2)nc1-c1c[nH]c2c(Br)c(NC(=O)OC)ccc12` [Example T-77]: less than 50 nM; `COC(=O)Nc1ccc2c(-c3nc(N[C@H]4CCC(C)(C)NC4)ncc3C(F)(F)F)c[nH]c2c1OC(C)C` [Example T-94]: less than 50 nM.
Next, `COC(=O)Nc1ccc2c(-c3nc(N[C@H]4CCCN(C)C4)ncc3C(F)(F)F)c[nH]c2c1C(F)(F)F` [Example T-111]: less than 50 nM; `COC(=O)Nc1ccc2c(-c3nc(N[C@H]4CCCN(C)C4)ncc3C(F)(F)F)c[nH]c2c1C1CC1` [Example T-174]: less than 50 nM.
Next, `COC(=O)Nc1ccc2c(-c3nc(N[C@H]4CCC[C@H](O)C4)ncc3C(F)(F)F)c[nH]c2c1Br` [Compound T-50]: more than 500 nM.
`COC(=O)Nc1ccc2c(-c3nc(N[C@H]4CCC(C)NC4)ncc3C(F)(F)F)c[nH]c2c1Cl` (some centres unmarked) [Example T-145]: the IC50 is 50 to 500 nM.
As to `COC(=O)Nc1ccc2c(-c3nc(NC4CNC5CC5C4)ncc3C(F)(F)F)c[nH]c2c1Cl` (centres unmarked) [Example T-126], the concentration for half-maximal inhibition (IC50) was less than 50 nM.
To `COC(=O)Nc1ccc2c(-c3nc(N[C@H]4CCC(C)(C)NC4)ncc3C(F)(F)F)c[nH]c2c1OC1CCC1` [Example T-93] belongs less than 50 nM.
With `COC(=O)Nc1ccc2c(-c3nc(N[C@H]4CCC(C)(C)NC4)ncc3C(F)(F)F)c[nH]c2c1OC1CCCC1` [Example T-92], the IC50 is 50 to 500 nM.
To `COC(=O)Nc1ccc2c(-c3nc(N[C@@H]4CCC[C@H]4N)ncc3C(F)(F)F)c[nH]c2c1Br` [Example T-57] belongs 50 to 500 nM; to `COC(=O)Nc1ccc2c(-c3nc(N[C@H]4CCC(C)(C)NC4)ncc3Cl)c[nH]c2c1Br` [Example T-72], less than 50 nM.
For `O=C1OCCN1c1ccc2c(-c3nc(N[C@H]4CCNC4)ncc3C(F)(F)F)c[nH]c2c1Br` [Example T-46], the IC50 lay within 50 to 500 nM.
To `COC(=O)Nc1ccc2c(-c3nc(N[C@H]4CCC(C)(C)NC4)ncc3C(F)(F)F)c[nH]c2c1CC(F)(F)F` [Example T-97] belongs less than 50 nM; to `COC(=O)N(C)c1ccc2c(-c3nc(N[C@H]4CCCNC4)ncc3C(F)(F)F)c[nH]c2c1OC` [Example T-166], less than 50 nM; to `COC(=O)Nc1ccc2c(-c3nc(N[C@H]4CC[C@H](C)NC4)ncc3C(F)(F)F)c[nH]c2c1OC` [Example T-141], 50 to 500 nM.
Next, `COC(=O)Nc1ccc2c(-c3nc(N[C@H]4CCCN(C)C4)ncc3C(F)(F)F)c[nH]c2c1C(F)(F)F` [Example T-172]: less than 50 nM; `COC(=O)N(C)c1ccc2c(-c3nc(N[C@H]4CCCNC4)ncc3C(F)(F)F)cn(C)c2c1Br` [Example T-41]: 50 to 500 nM; `COC(=O)Nc1ccc2c(-c3nc(N[C@@H]4CCC[C@@H]4N)ncc3C(F)(F)F)c[nH]c2c1Br` [Example T-58]: 50 to 500 nM.
Take `COC(=O)Nc1ccc2c(-c3nc(N[C@H]4CC[C@H](C)NC4)ncc3C(F)(F)F)c[nH]c2c1Br` [Example T-144]: the IC50 lay within 50 to 500 nM.
In the case of `COC(=O)Nc1ccc2c(-c3nc(N[C@H]4CCNC4)ncc3C(F)(F)F)c[nH]c2c1Br` [Example T-39], the IC50 was 50 to 500 nM.
Next, `COC(=O)Nc1ccc2c(-c3nc(N[C@H]4CCCN(C)C4)ncc3C(F)(F)F)c[nH]c2c1OC` [Example T-167]: less than 50 nM.
To `COC(=O)Nc1ccc2c(-c3nc(N[C@H]4CCC[C@H]4N)ncc3C(F)(F)F)c[nH]c2c1Br` [Example T-59] belongs 50 to 500 nM; to `O=C1CCCN1c1ccc2c(-c3nc(N[C@H]4CCNC4)ncc3C(F)(F)F)c[nH]c2c1Br` [Example T-47], 50 to 500 nM.
To `COC(=O)Nc1ccc2c(-c3nc(N[C@H]4CCCNC4)ncc3C(F)(F)F)c[nH]c2c1C(C)(C)O` [Example T-157] belongs less than 50 nM; to `COC(=O)Nc1ccc2c(-c3nc(N[C@H]4CCC(C)(C)NC4)ncc3C(F)(F)F)c[nH]c2c1SC(C)C` [Example T-89], less than 50 nM; to `COC(=O)Nc1ccc2c(-c3nc(N[C@H]4CC[C@H](C)NC4)ncc3C(F)(F)F)c[nH]c2c1Cl` [Example T-147], 50 to 500 nM.
Take `COC(=O)Nc1ccc2c(-c3nc(N[C@@H]4CC[C@H](N)C4)ncc3C(F)(F)F)c[nH]c2c1Br` [Example T-55]: the half-inhibitory concentration (IC50) is more than 500 nM.
Next, `COC(=O)Nc1ccc2c(-c3nc(N[C@H]4CCCNC4)ncc3Cl)c[nH]c2c1OC(F)(F)F` [Example T-123]: less than 50 nM; `COC(=O)Nc1ccc2c(-c3nc(N[C@H]4CCCNC4)ncc3C)c[nH]c2c1Br` [Example T-76]: less than 50 nM; `CCOc1c(NC(=O)OC)ccc2c(-c3nc(N[C@H]4CCC(C)(C)NC4)ncc3C(F)(F)F)c[nH]c12` [Example T-95]: less than 50 nM.
On to `COC(=O)Nc1ccc2c(-c3nc(N[C@H]4CCC5(CC5)NC4)ncc3C(F)(F)F)c[nH]c2c1OC` [Example T-38], for which the IC50 is less than 50 nM.
To `COC(=O)Nc1ccc2c(-c3nc(N[C@H]4CCC[C@H](O)C4)ncc3C(F)(F)F)c[nH]c2c1Br` [Example T-30] belongs more than 500 nM; to `COC(=O)Nc1ccc2c(-c3nc(N[C@H]4CCCN(C)C4)ncc3C(F)(F)F)c[nH]c2c1OC(F)F` [Example T-173], less than 50 nM.
On to `CN(C)C(=O)n1cc(-c2nc(N[C@H]3CCC(C)(C)NC3)ncc2C(F)(F)F)c2ccc(O)cc21` [Example T-33], for which the IC50 was 50 to 500 nM.
To `COC(=O)N(C)c1ccc2c(-c3nc(N[C@H]4CCC(C)(C)NC4)ncc3C(F)(F)F)c[nH]c2c1P(C)(C)=O` [Compound T-103] belongs less than 50 nM; to `CC(=O)Nc1ccc2c(-c3nc(N[C@H]4CCCNC4)ncc3C(F)(F)F)c[nH]c2c1C(C)(C)O` [Example T-158], less than 50 nM; to `COC(=O)N(C)c1ccc2c(-c3nc(N[C@H]4CCCNC4)ncc3C(F)(F)F)c[nH]c2c1C(C)(F)F` [Example T-170], less than 50 nM.
To `COC(=O)N(C)c1ccc2c(-c3nc(N[C@H]4CCCNC4)ncc3C(F)(F)F)c[nH]c2c1C1CC1` [Example T-175] belongs less than 50 nM.
To `COC(=O)Nc1ccc2c(-c3nc(N[C@H]4CCCNC4)ncc3C(F)(F)F)c[nH]c2c1C1CCOC1` (some centres unmarked) [Example T-83] belongs less than 50 nM.
For the compound `COC(=O)Nc1ccc2c(-c3nc(N[C@H]4CC=C(C)NC4)ncc3C(F)(F)F)c[nH]c2c1Cl` [Example T-148], the IC50 is 50 to 500 nM.
To `COC(=O)Nc1ccc2c(-c3nc(N[C@H]4CCCNC4)ncc3C(C)C)c[nH]c2c1Br` [Example T-78] belongs 50 to 500 nM; to `COC(=O)Nc1ccc2c(-c3nc(N[C@H]4CC=C(C)NC4)ncc3C(F)(F)F)c[nH]c2c1OC` [Example T-133], 50 to 500 nM; to `COC(=O)Nc1ccc2c(-c3nc(N[C@H]4CC[C@@H](N)C4)ncc3C(F)(F)F)c[nH]c2c1Br` [Example T-53], more than 500 nM.
Next, `CN(C)C(=O)Oc1ccc2c(-c3nc(N[C@H]4CCC(C)(C)NC4)ncc3C(F)(F)F)c[nH]c2c1` [Example T-32]: 50 to 500 nM; `CCN[C@H]1CCC[C@@H]1Nc1ncc(C(F)(F)F)c(-c2c[nH]c3c(Br)c(NC(=O)OC)ccc23)n1` [Example T-115]: less than 50 nM.
Next, `COC(=O)Nc1ccc2c(-c3nc(N[C@H]4CC[C@H](C)NC4)ncc3C(F)(F)F)c[nH]c2c1OCC(F)(F)F` [Example T-152]: 50 to 500 nM.
In the case of `COC(=O)Nc1ccc2c(-c3nc(N[C@@H]4CC[C@@H](N)C4)ncc3C(F)(F)F)c[nH]c2c1Br` [Example T-56], the IC50 is 50 to 500 nM.
To `COC(=O)Nc1ccc2c(-c3nc(N[C@H]4CCCNC4)ncc3C(F)(F)F)c[nH]c2c1OC(F)F` [Example T-121] belongs less than 50 nM; to `C#Cc1c(NC(=O)OC)ccc2c(-c3nc(N[C@H]4CCC(C)(C)NC4)ncc3C(F)(F)F)c[nH]c12` [Example T-90], less than 50 nM; to `COC(=O)Nc1ccc2c(-c3nc(N[C@H]4CCCN(C)C4)ncc3C(F)(F)F)c[nH]c2c1C(C)(F)F` [Example T-171], less than 50 nM.
To `COC(=O)Nc1ccc2c(-c3nc(N[C@@H]4CCNC4)ncc3C(F)(F)F)c[nH]c2c1Br` [Example T-61] belongs 50 to 500 nM; to `CCN[C@H]1CCC[C@@H]1Nc1ncc(C(F)(F)F)c(-c2c[nH]c3c(C(F)(F)F)c(NC(=O)OC)ccc23)n1` [Example T-117], less than 50 nM.
Next, `COC(=O)Nc1ccc2c(-c3nc(N[C@H]4CCC(C)(C)NC4)ncc3Cl)c[nH]c2c1C(F)(F)F` [Example T-87]: less than 50 nM.

The values are drawn from patent US20230295130A1, “COMPOUND USEFUL AS CDK7 KINASE INHIBITOR AND USE THEREOF” (TYK MEDICINES, INC., priority 2020, published 2023).
